We go through three compounds from patent US20110081405A1, “Zeolite Formulation And Use Thereof For The Prevention And Therapy Of Diseases Caused By Infections With Herpes Simplex Virus Type 1 And Type 2” (priority 2008, published 2011).

For series [1] the following is noted: background statement; cited from earlier work.
For another series, the system named is HSV-1 (strain F). Nature of the series: Viral plaque inhibition assay, zeolite coincubated with HSV-1, supernatants added to cells. Conditions: keratinocytes, supernatants of HSV-1 coincubated 18 hours with 5 μg/ml zeolite or 50 μg/ml Acyclovir, Mordenite 0.1-0.5 μm, P, X, A 0.5-5 μm. It counts as cell-based. On the procedure: (§1) Testing of Antiviral Activities of Synthetic Zeolites by the Viral Plaque Inhibition Assay—the Antiviral Activity of Zeolites when Coincubated with HSV In Vitro
(§2) Epidermal cell cultures of fibroblasts and keratinocytes were grown in vitro from healthy skin samples, remnants from operations. Fibroblast cultures were grown in Dulbecco modified Eagle's medium (DMEM) containing Glutamax I (L-alanin-L-glutamine) and sodium pyruvate, […] and pyridoxine, supplemented with 10% fetal calf serum (FCS), 0.25 μg gentamycin and 100 UI/L penicillin. Keratinocytes are grown in a mixture of DMEM, Hams F12 in the 3:1 ratio with the addition of Glutamax I, complemented with 9% of FCS, epidermal growth factor (EGF), insulin, hydrocortisone, triiodothyronine, adenine, and antibiotics. The antiviral effect was determined on primary cells (primary fibroblasts and keratinocytes) grown in vitro from the explants of healthy skin, and also on cell lines: fibroblasts cell line MRC-5, HEp-2 cell line, and Vero cell line.
(§3) MRC-5, Vero, HEp-2, and keratinocyte cell lines were all obtained from the American Type Culture Collection-ATCC, and grown in T-75 flasks at 37° C. in a humidified incubator with 5% CO2.
(§4) HSV-1 (strain F) and HSV-2 (strain G), both obtained from the ATCC, were propagated in HEp-2 cells and their titres checked in same cells (H. Kirchner, C. Kleinicke, H. Northoff. J. Gen. Virol. 1977, 37, 647.). 0.1, 0.5, 1, 2, 4, or 5 Multiplicity of infection (MOI) of HSV-1 or HSV-2 was used to infect Vero cells, keratinocyte cell lines and MRC-5 cell lines, as described below.
(§5) Synthetic zeolites: A, Mordenite, P and X were tested in vitro for an anti HSV activity. Mordenite was used in two characteristic size of particles (0.1-0.5 μm and 0.5-5 μm) and other zeolites in 0.5-5 μm particle size. Zeolites were used in the concentrations of 5, 50, 500 ng/ml; 1, 5, 50, 100, 500 μg/ml; 1, 2, 10, 50 mg/ml in growth medium.
(§6) The ability of HSV preincubated with zeolite to infect cells permissive to infection (permissive cells) and cell lines was tested in in vitro experiments.
(§7) Viral stock containing the HSV-1 or HSV-2 (in MOI described above), diluted in a minimal volume of growth medium containing 5% FCS was used for the coincubation with zeolite for 3-20 hours at 4° C. The pH was maintained at all times to be at around 7.00. The sterile cuvettes containing zeolite+HSV were then centrifuged at 4.000 rpm/30 minutes to remove any particulate content in supernatants. Those supernatants (in 200 μl volume) were then added to the MRC-5, HEp-2, or Vero cell lines (grown in 24 well plate to 85% confluency) for 1 hour at 37° C. Parallel cultures contained cells infected with 200 μl of HSV-1 or HSV-2 under the same conditions as for the addition of supernatants (above). After one hour incubation, the growth medium containing 9% FCS was added, and cells cultivated for another 3 days (to examine for any CPE by light microscopy). Growth medium was then aspirated from the wells, and 100 μl of 0.2% crystal violet dye, diluted in phosphate buffered saline (PBS), was added to each well. After half-hour exposure to the dye, the wells were washed twice with double distilled water, air-dried, and the HSV plaques in cell cultures were counted using Olympus light microscope (magnification of 40×). The CPE produced by the infection of permissive cells was characterised by morphological changes in host cells e.g. cell rounding, swelling, detachment from the surface, formation of syncicia, plaques, caused by the increased number of newly formed viral particles. Plaques formed by HSV destroying cells were easily distinguished from unaffected cell layers.

For another series, the system named is HSV-2 (strain G). Nature of the series: Viral plaque inhibition assay, zeolite coincubated with HSV-2, supernatants added to cells. It counts as cell-based. Conditions: keratinocytes, supernatants of HSV-2 coincubated 18 hours with 5 μg/ml zeolite or 50 μg/ml Acyclovir, Mordenite 0.1-0.5 μm, P, X, A 0.5-5 μm. On the procedure: as §1, §2, §3, §4, §5, §6, §7

As to `CC(=O)OCC(CCn1cnc2cnc(N)nc21)COC(C)=O` [famcyclovir], the “biavalibility of the drug” value in series [1] was 77%.
Consider `Nc1nc2c(ncn2COCCO)c(=O)[nH]1` [Acyclovir, 9-[(2-hydroxyetoxy)methyl]guanine], for which the “decrease in number of HSV-1 plaques” value with HSV-1 (strain F) (0.1 MOI) stood at 71; with HSV-1 (strain F) (0.5 MOI), 71; with HSV-1 (strain F) (1 MOI) it was 61; in the series with HSV-1 (strain F) (2 MOI) it was 58; with HSV-1 (strain F) (4 MOI) it was 43; in the series on HSV-1 (strain F) (5 MOI) it was 36. For the same compound, the “decrease in percentage of number of HSV-2 plaques” value stood at 73% with HSV-2 (strain G) (0.1 MOI); 72% with HSV-2 (strain G) (0.5 MOI); 70% in the series with HSV-2 (strain G) (1 MOI); 65% in the series with HSV-2 (strain G) (2 MOI); 48% in the series on HSV-2 (strain G) (4 MOI); 42% in the series on HSV-2 (strain G) (5 MOI).
Regarding `CC(C)[C@H](N)C(=O)OCCOCn1cnc2c(=O)[nH]c(N)nc21` [valacyclovir], in series [1], the “biavalibility of the drug” value is 55%.
